One assay has as its system CML. The conditions noted are these: cited from earlier work.
[1] abbreviates: of 54 CML patients treated with 300 mg or more.
The mark [2] stands for this setting: rs2290573 CC genotype, n = 26, 18-month data, ITT principle.
The mark [3] stands for this setting: rs2290573 CT, TT genotype, n = 79, 18-month data, ITT principle.

This is an account of results in patent US20050164196A1, “Methods to predict patient responsiveness to tyrosine kinase inhibitors” (priority 2002, published 2005).

Several values for one entry are separate records, joined by “and”; a condition that tells them apart may be missing. Equal entries are not always repeated. Structures can show the parent of a compound that is named as a salt. Where two headings read alike, the source gives them in different places.

Consider `Cc1ccc(NC(=O)c2ccc(CN3CCN(C)CC3)cc2)cc1Nc1nccc(-c2cccnc2)n1` [Imatinib, Imatinib mesylate], for which, in the assay on CML (% of the 54 patients who received 300 mg or more), the “major responses (0-35% of cells in metaphase positive for the Ph′ chromosome)” value is 31%. Besides, in the assay on CML (setting [1]), the “complete cytogenetic remission (CCR)” value is 7 patients, the “complete hematologic responses (CHR)” value was 53 patients, the cytogenic responses was 29 patients and the “major responses (0-35% of cells in metaphase positive for the Ph′ chromosome)” value is on record as 17 patients. The compound also gave an events of progression in the assay on Ph+ CML (genotyped patients of the Imatinib arm, 18-month data, ITT principle) of 10 events. In the assay with Ph+ CML (individual patients with disease progression among the 105 analyzed patients, 18-month data, one line per patient, listed as STI571), the “TTP (months)” value was 16.1 months and 16.3 months and 11.8 months and 17.0 months and 13.4 months and 16.4 months and 9.7 months and 15.8 months and 5.6 months and 6.8 months. In addition, the “individuals who exhibited disease progression” value in the assay on Ph+ CML (out of the entire 553 treated patients, 12-month data) is 24 individuals. In addition, the “patients who experienced progression events” value in the assay with Ph+ CML (rs2290573 CC genotype, 26 patients, 18-month data) was 23.1%. Further, in the assay on Ph+ CML (setting [2]), the “Death (as primary reason for discontinuation)” value is listed as 0 (0) n (%), the “Increase in WBC (approved by SMC)” value is 1 (3.8) n (%), the “Loss of CHR” value is given as 1 (3.8) n (%) and the “Loss of MCyR” value was 4 (15.4) n (%). For the same compound, in the assay on Ph+ CML (setting [2]), the “Progression to AP or BC” value is reported as 0 (0) n (%) and the “Total number of patients with events (progression)” value is recorded as 6 (23.1) n (%). Further, the “patients who experienced progression events” value in the assay on Ph+ CML (rs2290573 CT or TT genotype, 79 patients, 18-month data) is 5.1%. For the same compound, in the assay on Ph+ CML (setting [3]), the “Death (as primary reason for discontinuation)” value was 0 (0) n (%), the “Increase in WBC (approved by SMC)” value is listed as 0 (0) n (%), the “Loss of CHR” value is given as 2 (2.5) n (%) and the “Loss of MCyR” value is 0 (0) n (%). Also, in the assay on Ph+ CML (setting [3]), the “Progression to AP or BC” value is 2 (2.5) n (%) and the “Total number of patients with events (progression)” value is reported as 4 (5.1) n (%).
